Molecules are shown by their SMILES.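 Exposure lasted 48 hours, with cells grown in 96-well plates and compounds tested at five concentrations. Abbreviation: GI50, concentration required for 50% inhibition of growth. At the TGI there is no net growth.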

Among the test systems are HL-60(TB) leukemia; UO-31 renal; NCI-H226 lung; SF-539 CNS; COLO 205 colon; SN12C renal; T-47D breast; OVCAR-8 ovarian; M14 melanoma; OVCAR-5 ovarian.
Assay in all cases: NCI anticancer screen, dose series, 48 h

On to `CC1=C(CCC(C)CO)O[C@H]2C[C@H]3[C@@H]4CC[C@H]5C[C@@H](O)CC[C@]5(C)[C@H]4CC(=O)[C@]3(C)[C@@H]12` (stereo not given in full), for which the TGI in the experiment with HL-60(TB) leukemia is 13.6 µM; in the experiment on UO-31 renal it was 33.3 µM; in the experiment on NCI-H226 lung it was greater than 82.2 µM; in the experiment with SF-539 CNS, 72.7 µM; in the experiment with COLO 205 colon it was 27.7 µM; with SN12C renal, 53.2 µM. Moreover, the TGI worked out at 29.2 µM with T-47D breast, 44.3 µM in the experiment with OVCAR-8 ovarian, 27 µM in the experiment with M14 melanoma and 71.1 µM with OVCAR-5 ovarian.
As for `CN1CCN(Cc2ccc(NC(=O)c3cncc(C#Cc4ccc(N)nc4)c3)cc2C(F)(F)F)CC1`, the GI50 is 0.945 µM with HL-60(TB) leukemia; 0.716 µM in the experiment on UO-31 renal; 0.358 µM with NCI-H226 lung; 0.501 µM with SF-539 CNS; 0.865 µM with COLO 205 colon; 1.11 µM with SN12C renal. Further, the GI50 in the experiment on T-47D breast is 1.35 µM; in the experiment on OVCAR-8 ovarian it was 1.73 µM; with M14 melanoma, 0.486 µM; in the experiment on OVCAR-5 ovarian, 1.38 µM. Further, the TGI in the experiment with HL-60(TB) leukemia was 2.25 µM; in the experiment on UO-31 renal it was 2.93 µM; with NCI-H226 lung, 2.75 µM; in the experiment on SF-539 CNS, 1.66 µM; in the experiment on COLO 205 colon it was 3.95 µM; in the experiment on SN12C renal, 5.17 µM. Besides, the TGI in the experiment with T-47D breast was determined as 7.14 µM; in the experiment with OVCAR-8 ovarian, 9.9 µM; in the experiment with M14 melanoma, 1.63 µM; in the experiment with OVCAR-5 ovarian, 7.22 µM.
On to `Cc1ccc2ccccc2c1CSc1nc(N)nc2c1ncn2CC(C)C`, for which the TGI is greater than 100 µM in the experiment on HL-60(TB) leukemia; 13.2 µM in the experiment with UO-31 renal; 72.7 µM in the experiment on NCI-H226 lung; greater than 44.8 µM in the experiment with SF-539 CNS; 20.2 µM with COLO 205 colon; greater than 100 µM with SN12C renal. In addition, the TGI was greater than 47.8 µM with T-47D breast, greater than 100 µM in the experiment with OVCAR-8 ovarian, greater than 80.8 µM in the experiment on M14 melanoma and greater than 100 µM in the experiment on OVCAR-5 ovarian.
Regarding `CN1C(=O)N(C)C2C1NC(=S)N2/N=C/C=C/c1ccccc1[N+](=O)[O-]` (stereo not given), the GI50 was 0.414 µM with HL-60(TB) leukemia; 3.86 µM in the experiment on UO-31 renal; 17.5 µM with NCI-H226 lung; 0.537 µM with SF-539 CNS; 1.23 µM in the experiment on COLO 205 colon; 6.82 µM in the experiment on SN12C renal. For the same compound, the GI50 is greater than 100 µM in the experiment on T-47D breast, 3.11 µM with OVCAR-8 ovarian, 0.92 µM in the experiment on M14 melanoma and 3.88 µM with OVCAR-5 ovarian. In addition, the TGI in the experiment on HL-60(TB) leukemia is 2.8 µM; with UO-31 renal, greater than 100 µM; in the experiment with NCI-H226 lung, greater than 100 µM; in the experiment on SF-539 CNS, 8.44 µM; in the experiment on COLO 205 colon it was 6.77 µM; with SN12C renal it was greater than 100 µM. Moreover, the TGI in the experiment on T-47D breast, in the experiment on OVCAR-8 ovarian, with M14 melanoma and in the experiment on OVCAR-5 ovarian was greater than 100 µM throughout.
Turning to `O=C(Nc1cccc([N+](=O)[O-])c1)c1cccc(C(=O)Nc2cccc([N+](=O)[O-])c2)c1`, the GI50 with HL-60(TB) leukemia was greater than 100 µM; in the experiment on UO-31 renal, greater than 100 µM; with NCI-H226 lung, greater than 100 µM; in the experiment with SF-539 CNS, 27.8 µM; in the experiment with COLO 205 colon it was greater than 100 µM; with SN12C renal it was 60.3 µM. For the same compound, the GI50 was 56.9 µM in the experiment on T-47D breast, 14 µM in the experiment on OVCAR-8 ovarian, greater than 100 µM in the experiment on M14 melanoma and greater than 100 µM in the experiment on OVCAR-5 ovarian. Besides, the TGI in the experiment with HL-60(TB) leukemia, in the experiment on UO-31 renal, in the experiment with NCI-H226 lung, in the experiment with SF-539 CNS, with COLO 205 colon and in the experiment with SN12C renal was greater than 100 µM in each case. In addition, the TGI with T-47D breast, in the experiment on OVCAR-8 ovarian, in the experiment on M14 melanoma and with OVCAR-5 ovarian was greater than 100 µM throughout.
As to `N#C/C(=C\c1ccc[nH]1)c1cc(-c2ccc(Cl)cc2)nn1-c1ccccc1`, the GI50 with HL-60(TB) leukemia is 4.36 µM; with UO-31 renal it was 3.82 µM; in the experiment with NCI-H226 lung it was 7.71 µM; in the experiment with SF-539 CNS, 6.05 µM; in the experiment with COLO 205 colon, 3.16 µM; with SN12C renal, 5.87 µM. The GI50 in the experiment on T-47D breast was 1.56 µM; with OVCAR-8 ovarian it was 11.5 µM; in the experiment with M14 melanoma it was 4.09 µM; with OVCAR-5 ovarian, 15.7 µM. For the same compound, the TGI is 29.3 µM in the experiment with HL-60(TB) leukemia; 31 µM in the experiment on UO-31 renal; 37.2 µM in the experiment with NCI-H226 lung; 18.9 µM in the experiment with SF-539 CNS; 8.17 µM in the experiment with COLO 205 colon; greater than 48 µM in the experiment on SN12C renal. Moreover, the TGI with T-47D breast was 13.1 µM; with OVCAR-8 ovarian it was greater than 100 µM; in the experiment with M14 melanoma, 14.8 µM; with OVCAR-5 ovarian, 50.3 µM.
As to `Cc1cc(N(CCC#N)S(=O)(=O)c2ccccc2)ccc1C=Nc1ccc(C(=O)O)cc1`, the TGI in the experiment on HL-60(TB) leukemia was greater than 21.3 µM; with UO-31 renal, 21.8 µM; in the experiment on NCI-H226 lung, 40.7 µM; in the experiment on SF-539 CNS, 30.7 µM; in the experiment on COLO 205 colon, 10.1 µM; with SN12C renal, 16.8 µM. For the same compound, the TGI in the experiment with T-47D breast is greater than 100 µM; in the experiment on OVCAR-8 ovarian it was 15.5 µM; in the experiment on M14 melanoma, 21.8 µM; in the experiment with OVCAR-5 ovarian, 38.7 µM.
On to `CC1(C)OCC2OC(n3cnc4c(N)nc(Cl)nc43)C(OS(C)(=O)=O)C2O1` (stereo not given), for which the TGI in the experiment with HL-60(TB) leukemia, in the experiment with UO-31 renal, with NCI-H226 lung, with SF-539 CNS, in the experiment with COLO 205 colon and in the experiment on SN12C renal was greater than 100 µM throughout. The TGI in the experiment on T-47D breast, with OVCAR-8 ovarian, in the experiment on M14 melanoma and in the experiment with OVCAR-5 ovarian was greater than 100 µM each time.

Source of the values: PubChem BioAssay (NCI).
